Reference: ChEMBL document CHEMBL4004883, “Biologically active perspective synthesis of heteroannulated 8-nitroquinolines with green chemistry approach” (Bioorg Med Chem Lett, 2017)
Values after ≈ are worked out from the molar mass of the structure shown.

How the values were obtained:
[1] = Antioxidant activity assessed as total antioxidant capacity measured as ascorbic acid equivalents at 60 ug/ml after 90 mins by phosphomolybdenum method; format: functional
Staphylococcus aureus [2] = experiment: Antibacterial activity against Staphylococcus aureus MTCC 96 incubated for 24 hrs under dark condition by microwell dilution method; format: functional; conditions: MTCC 96, 24 h
MCF7 = experiment: Cytotoxicity against human MCF7 cells assessed as decrease in cell viability after 48 hrs by MTT assay; format: functional, cell-based; conditions: MCF7, 48 h
Staphylococcus aureus [3] = experiment: Antibacterial activity against Staphylococcus aureus MTCC 96 at 100 ug incubated for 24 hrs under dark condition by agar well diffusion method; format: functional; conditions: MTCC 96, 24 h, read-out: IZ
[4] = Antioxidant activity assessed as assessed as ferric ion reducing activity by measuring absorbance at 700 nm at 60 ug/ml after 20 mins by spectrophotometric method; format: functional
Pseudomonas aeruginosa [5] = experiment: Antibacterial activity against Pseudomonas aeruginosa MTCC 102 incubated for 24 hrs under dark condition by microwell dilution method; format: functional; conditions: MTCC 102, 24 h
Bacillus subtilis [6] = experiment: Antibacterial activity against Bacillus subtilis MTCC 121 incubated for 24 hrs under dark condition by microwell dilution method; format: functional; conditions: MTCC 121, 24 h
[7] = Antioxidant activity assessed as total antioxidant capacity measured as ascorbic acid equivalents at 20 ug/ml after 90 mins by phosphomolybdenum method; format: functional
Escherichia coli [8] = experiment: Antibacterial activity against Escherichia coli MTCC 1652 at 100 ug incubated for 24 hrs under dark condition by agar well diffusion method; format: functional; conditions: MTCC 1652, 24 h, read-out: IZ
Pseudomonas aeruginosa [9] = experiment: Antibacterial activity against Pseudomonas aeruginosa MTCC 102 at 100 ug incubated for 24 hrs under dark condition by agar well diffusion method; format: functional; conditions: MTCC 102, 24 h, read-out: IZ
[10] = Antioxidant activity assessed as assessed as ferric ion reducing activity by measuring absorbance at 700 nm at 100 ug/ml after 20 mins by spectrophotometric method; format: functional
A549 = experiment: Cytotoxicity against human A549 cells assessed as decrease in cell viability after 48 hrs by MTT assay; format: functional, cell-based; conditions: A549, 48 h
Bacillus subtilis [11] = experiment: Antibacterial activity against Bacillus subtilis MTCC 121 at 100 ug incubated for 24 hrs under dark condition by agar well diffusion method; format: functional; conditions: MTCC 121, 24 h, read-out: IZ
[12] = Antioxidant activity assessed as DPPH radical scavenging activity after 20 mins by UV/VIS Spectrophotometric method; format: functional
[13] = Antioxidant activity assessed as total antioxidant capacity measured as ascorbic acid equivalents at 100 ug/ml after 90 mins by phosphomolybdenum method; format: functional
Escherichia coli [14] = experiment: Antibacterial activity against Escherichia coli MTCC 1652 incubated for 24 hrs under dark condition by microwell dilution method; format: functional; conditions: MTCC 1652, 24 h
[15] = Antioxidant activity assessed as assessed as ferric ion reducing activity by measuring absorbance at 700 nm at 20 ug/ml after 20 mins by spectrophotometric method; format: functional

| SMILES | MIC (Staphylococcus aureus [2]) [µg/mL] | MIC (Pseudomonas aeruginosa [5]) [µg/mL] | MIC (Bacillus subtilis [6]) [µg/mL] | IC50 [12] [µg/mL] | MIC (Escherichia coli [14]) [µg/mL] | Activity [1] [µgequiv/ml] | IC50 (MCF7) [µM] | zone of inhibition at 100 µg/disc (Staphylococcus aureus [3]) [mm] | OD [4] | Activity [7] [µgequiv/ml] | zone of inhibition at 100 µg/disc (Escherichia coli [8]) [mm] | zone of inhibition at 100 µg/disc (Pseudomonas aeruginosa [9]) [mm] | OD [10] | IC50 (A549) [µM] | zone of inhibition at 100 µg/disc (Bacillus subtilis [11]) [mm] | Activity [13] [µgequiv/ml] | OD [15] |
| --- | --- | --- | --- | --- | --- | --- | --- | --- | --- | --- | --- | --- | --- | --- | --- | --- | --- |
| O=[N+]([O-])c1cccc2c1NCC1C2=NN(c2ccccc2)C1c1ccc(F)cc1 (stereo not given) | 10 (≈ 25.7 µM) | 55.5 (≈ 143 µM) | 12.5 (≈ 32.2 µM) | 205.13 (≈ 528 µM) | 17 (≈ 43.8 µM) | 7.36 | 46 | 20 | 0.1 | 4.02 | 21 | 18 | 0.112 | 23.2 | 18 | 11.2 | 0.092 |
| COc1ccc(C2C3CNc4c(cccc4[N+](=O)[O-])C3=NN2c2ccccc2)cc1OC (stereo not given) | 12.5 (≈ 29 µM) | 55.5 (≈ 129 µM) | 12.5 (≈ 29 µM) | 169.91 (≈ 395 µM) | 34 (≈ 79 µM) | 8.12 | 58.5 | 19 | 0.102 | 4.04 | 18 | 16 | 0.155 | 46.4 | 19 | 12.3 | 0.084 |
| CC1(C)S[C@@H]2[C@H](NC(=O)[C@H](N)c3ccccc3)C(=O)N2[C@H]1C(=O)O [AMPICILLIN] | 2.5 (≈ 7.15 µM) | 18.5 (≈ 52.9 µM) | 2.5 (≈ 7.15 µM) |  | 8.5 (≈ 24.3 µM) |  |  | 24 |  |  | 24 | 22 |  |  | 30 |  |  |
| COc1ccc(C2C(C#N)=C(N)OC3=C2CNc2c3cccc2[N+](=O)[O-])cc1OC (stereo not given) | 40 (≈ 98.4 µM) | 150 (≈ 369 µM) | 20 (≈ 49.2 µM) | 124.38 (≈ 306 µM) | 80.5 (≈ 198 µM) | 9.51 | 56.3 | 14 | 0.111 | 4.04 | 12 | 13 | 0.157 | 50.6 | 15 | 13.7 | 0.078 |
| CCOc1ccc(C2C3CNc4c(cccc4[N+](=O)[O-])C3=NN2c2ccccc2)c(OCC)c1 (stereo not given) | 10 (≈ 21.8 µM) | 55.5 (≈ 121 µM) | 7.5 (≈ 16.4 µM) | 170.8 (≈ 373 µM) | 34 (≈ 74.2 µM) | 5.75 | 65.7 | 19 | 0.085 | 2.46 | 19 | 18 | 0.098 | 50.9 | 23 | 9.47 | 0.068 |
| COc1ccc(C2C(C#N)=C(N)OC3=C2CNc2c3cccc2[N+](=O)[O-])c(OC)c1 (stereo not given) | 40 (≈ 98.4 µM) | 150 (≈ 369 µM) | 20 (≈ 49.2 µM) | 122.13 (≈ 301 µM) | 42.5 (≈ 105 µM) | 9.89 | 51.2 | 14 | 0.112 | 4.79 | 15 | 13 | 0.162 | 44.6 | 15 | 14.2 | 0.08 |
| COc1ccc(C2C3CNc4c(cccc4[N+](=O)[O-])C3=NN2c2ccccc2)cc1 (stereo not given) | 17.5 (≈ 43.7 µM) | 200 (≈ 499 µM) | 20 (≈ 49.9 µM) | 138.8 (≈ 347 µM) | 42.5 (≈ 106 µM) | 10.5 | 31.3 | 15 | 0.134 | 4.95 | 14 | 10 | 0.192 | 40.2 | 17 | 14.3 | 0.091 |
| Cc1cc(C(C)(C)C)c(O)c(C(C)(C)C)c1 |  |  |  |  |  |  |  |  | 0.448 |  |  |  | 0.612 |  |  |  | 0.329 |
| N#CC1=C(N)OC2=C(CNc3c2cccc3[N+](=O)[O-])C1c1ccc(F)cc1 (stereo not given) | 5 (≈ 13.7 µM) | 37 (≈ 102 µM) | 7.5 (≈ 20.6 µM) | 128.58 (≈ 353 µM) | 17 (≈ 46.7 µM) | 4.06 | 35.7 | 23 | 0.098 | 2.12 | 22 | 20 | 0.12 | 22.1 | 26 | 7.45 | 0.085 |
| Cc1ccc(C2C3CNc4c(cccc4[N+](=O)[O-])C3=NN2c2ccccc2)cc1 (stereo not given) | 50 (≈ 130 µM) | 200 (≈ 520 µM) | 50 (≈ 130 µM) | 185.06 (≈ 481 µM) | 80.5 (≈ 209 µM) | 5.23 | 72.8 | 12 | 0.096 | 3.33 | 10 | 8 | 0.145 | 45.8 | 12 | 10.2 | 0.082 |
| N#CC1=C(N)OC2=C(CNc3c2cccc3[N+](=O)[O-])C1c1ccc(Br)cc1 (stereo not given) | 10 (≈ 23.5 µM) | 37 (≈ 87 µM) | 12.5 (≈ 29.4 µM) | 125.08 (≈ 294 µM) | 25.5 (≈ 60 µM) | 2.98 | 24.7 | 20 | 0.095 | 1.5 | 18 | 20 | 0.134 | 34.8 | 20 | 5.67 | 0.071 |
| O=C1O[C@H]([C@@H](O)CO)C(O)=C1O [ASCORBIC ACID] |  |  |  | 28.02 (≈ 159 µM) |  |  |  |  |  |  |  |  |  |  |  |  |  |

Further lines, with some results ahead:

| MIC (Staphylococcus aureus [2]) [µg/mL] | MIC (Pseudomonas aeruginosa [5]) [µg/mL] | MIC (Bacillus subtilis [6]) [µg/mL] | IC50 [12] [µg/mL] | MIC (Escherichia coli [14]) [µg/mL] | SMILES | Activity [1] [µgequiv/ml] | IC50 (MCF7) [µM] | zone of inhibition at 100 µg/disc (Staphylococcus aureus [3]) [mm] | OD [4] | Activity [7] [µgequiv/ml] | zone of inhibition at 100 µg/disc (Escherichia coli [8]) [mm] | zone of inhibition at 100 µg/disc (Pseudomonas aeruginosa [9]) [mm] | OD [10] | IC50 (A549) [µM] | zone of inhibition at 100 µg/disc (Bacillus subtilis [11]) [mm] | Activity [13] [µgequiv/ml] | OD [15] |
| --- | --- | --- | --- | --- | --- | --- | --- | --- | --- | --- | --- | --- | --- | --- | --- | --- | --- |
| 10 (≈ 26.3 µM) | 55.5 (≈ 146 µM) | 10 (≈ 26.3 µM) | 118.03 (≈ 310 µM) | 17 (≈ 44.6 µM) | N#CC1=C(N)OC2=C(CNc3c2cccc3[N+](=O)[O-])C1c1ccc(Cl)cc1 (stereo not given) | 1.06 | 22.7 | 21 | 0.125 | 0.59 | 21 | 18 | 0.189 | 28.1 | 24 | 2.57 | 0.088 |
| 17.5 (≈ 42.1 µM) | 55.5 (≈ 134 µM) | 17.5 (≈ 42.1 µM) | 132.65 (≈ 319 µM) | 25.5 (≈ 61.4 µM) | N#CC1=C(N)OC2=C(CNc3c2cc(Cl)cc3[N+](=O)[O-])C1c1ccc(Cl)cc1 (stereo not given) | 7.08 | 18 | 15 | 0.125 | 3.67 | 18 | 16 | 0.156 | 25.5 | 18 | 13 | 0.093 |
| 50 (≈ 144 µM) | 200 (≈ 577 µM) | 50 (≈ 144 µM) | 155.12 (≈ 447 µM) | 80.5 (≈ 232 µM) | O=[N+]([O-])c1cc(Cl)cc2c1NCC1C2=NNC1c1ccc(F)cc1 (stereo not given) | 2.49 | 98.7 | 12 | 0.088 | 1.21 | 12 | 8 | 0.098 | 63.6 | 12 | 5.03 | 0.08 |
| 15 (≈ 37.1 µM) | 100 (≈ 247 µM) | 15 (≈ 37.1 µM) | 202.18 (≈ 499 µM) | 34 (≈ 84 µM) | O=[N+]([O-])c1cccc2c1NCC1C2=NN(c2ccccc2)C1c1ccc(Cl)cc1 (stereo not given) | 6.17 | 41.4 | 17 | 0.09 | 4.12 | 17 | 13 | 0.101 | 28.7 | 16 | 10.4 | 0.082 |
| 55 (≈ 151 µM) | 100 (≈ 275 µM) | 60 (≈ 165 µM) | 169.33 (≈ 466 µM) | 97.5 (≈ 268 µM) | O=[N+]([O-])c1cc(Cl)cc2c1NCC1C2=NNC1c1ccc(Cl)cc1 (stereo not given) | 6.27 | 78.5 | 13 | 0.083 | 3.47 | 8 | 14 | 0.091 | 95.1 | 10 | 11.8 | 0.072 |
